In assay [1] the target is T1, firefly-Luciferase (Photinus pyralis, UniProt P08659).
T1 construct: purchased Sigma-Aldrich (St. Louis, MO)
Nature of the assay: Luciferase (biochemical) qHTS assay, tox21-luc-biochem-p1, cell-free. As to conditions: for AC50: no unit printed in the picture (text uses µM). An excerpt:
(§1) Three assay platforms were applied to analyze luciferase and fluorescence interference patterns using the Tox21 chemical screening library. […] The Tox21 chemical library (8,305 unique substances) was screened in triplicate concentration response in all assays, with concurrent cytotoxicity measurements where applicable.
The substrate D-Luciferin and the enzyme firefly-Luciferase were purchased from Sigma-Aldrich (St. Louis, MO). The positive control compound (PTC-124) was purchased from Santa Cruz Biotechnology, Inc. (Dallas, TX).
Three µL of the substrate (mixture containing 50 mM Tris-acetate pH 7.6, 13.3 mM magnesium acetate, 0.01 mM D-luciferin, 0.01 mM ATP, 0.01% Tween, 0.05% BSA and distilled H2O) was dispensed into medium-binding white/solid 1,536-well plates (Greiner Bio-One North America Inc., Monroe, NC) using a Flying Reagent Dispenser, FRD (Aurora Discovery, Carlsbad, CA). Then 23 nL of the test compounds (into 5–48 columns), PTC-124 and/or DMSO (into 1–4 columns) were transferred to the assay plates using a Pintool station (Wako, San Diego, CA). The positive control plate format is, column-1: sixteen-concentration two-fold titration of PTC-124 from 0.035 nM to 1.15 µM with duplicate points; columns-2 & 3 for the top half portions: 0.58 and 1.15 µM PTC-124 respectively and DMSO in the rest. Compound addition was followed by the addition of 1 μl of 10 nM enzyme (mixture containing 50 mM Tris-acetate, 0.04 µM firefly-Luciferase and distilled H2O) by using an FRD to all the wells of assay plate except in the 4th column which received the buffer instead. After 5 min incubation at room temperate, luminescence intensity was measured by a Viewlux plate reader (Perkin Elmer, Waltham, MA). Data were expressed as relative luminescence units. Each test compound was measured at 15 concentrations ranging from 1.5 nM to 115 µM and in triplicate.
For primary data analysis, raw plate reads for each titration point were first normalized relative to DMSO-only wells that received firefly-Luciferase (basal, 0%) and PTC-124 control wells that received firefly-Luciferase (0.58 µM, −100%) and then corrected by applying a pattern correction algorithm using compound-free control plates (DMSO plates). Concentration-response titration points for each compound replicate were fitted to the Hill equation and concentrations of half-maximal inhibition activity (IC50) and maximal response (efficacy) values were calculated; the mean of the IC50s was used as the representative value. Concentration response curves were designated as class 1–4 based on the quality of the fit, the number of points above background, and the response efficacy, as previously described (summarized in Supporting Information Table S1)[18],[20].
(§2) Finally, for autofluorescence assays, to avoid indications of generalized cell stress without specific biomolecular interactions, only AC50 below the burst cutoff defined in[23] were considered. Indeed, activity above this limit may result from triggering cell stress pathways, chemical reactivity, physico-chemical disruption of proteins or membranes, or broad low-affinity non-covalent interactions and not from a specific technology interference reaction. This filter was applied to distinguish chemical-structure driven autofluorescence from the increase in signal that has been observed due to cell stress. The distribution of the curve classes for active chemicals is presented in Supporting Information Fig. S1.
A general note: Quantitative high-throughput screening tests each substance at several concentrations.

Assay [2] deals with HepG2 and HEK-293. The assay is described as follows: Autofluorescence assays, all channels and culture conditions taken together. As to conditions: for autofluorescence activity specific to one cell culture: among chemicals active within wavelengths, Fig. 8. The procedure:
as §1
(§3) HepG2 and HEK-293 cells were purchased from American Type Culture Collection (ATCC, Manassas, VA). HepG2 cells were cultured in Eagle’s Minimum Essential Medium (EMEM, ATCC) and HEK-293 cells in Dulbecco’s Modified Eagle’s Medium (DMEM, Life Technologies Corporation, Carlsbad, CA), and both supplemented with 10% Hyclone’s Fetal Bovine Serum (ThermoFisher Scientific, Waltham, MA), and 100 U/ml penicillin-100 µg/ml streptomycin (Life Technologies Corporation). Cells were cultured and maintained at 37 °C under a humidified atmosphere and 5% CO2.
(§4) HepG2 and HEK-293 cells were dispensed at 2,000/well in 5 µL of the culture medium into 1,536-well black/clear plates using a Multidrop™ Combi Reagent dispenser (ThermoFisher Scientific). In parallel, 5 µL/well of culture medium only were dispensed into 1,536-well black/clear plates. […] After respective incubation times, 23 nL of the compounds dissolved in DMSO, positive controls (fluorescein-green, triamterene-blue, and rose bengal-red) were transferred to the assay plates using Pintool station (Wako, San Diego, CA). […] The fluorescence intensity was measured using an Envision plate reader (Perkin Elmer, Waltham, MA) by using excitation/emission filters at 485/535 nm, 405/460 nm, and 540/590 nm for green, blue and red channels respectively. Data were expressed as relative fluorescence units. Each test compound was measured at 5 concentrations ranging from to 29 nM to 92 µM.
(§5) Analysis of compound concentration-response data was performed as previously described. Briefly, raw plate reads for each titration point were first normalized and then corrected by applying a pattern correction algorithm using compound-free control plates (DMSO plates)[22]. […] When normalizing to the positive control, the positive control response was set to 100% and negative control to 0% as follows: Activity(%)=([Vc−VDMSO]/[Vpos−VDMSO])×100, where Vc denotes the compound well values, Vpos denotes the median value of the positive control wells, and VDMSO denotes the median values of the DMSO-only wells. […] The following formula was used to normalize data to the negative control: Activity(%)=([Vc−VDMSO]/[VDMSO])×100 Concentration-response titration points for each compound were fitted to the Hill equation and concentrations of half-maximal activity (AC50) and maximal response (efficacy) values were calculated. Concentration response curves were designated as class 1–4 based on the quality of the fit, the number of points above background, and the response efficacy, as previously described (summarized in Supporting Information Table S1)[18],[20].
Finally, for autofluorescence assays, to avoid indications of generalized cell stress without specific biomolecular interactions, only AC50 below the burst cutoff defined in[23] were considered. Indeed, activity above this limit may result from triggering cell stress pathways, chemical reactivity, physico-chemical disruption of proteins or membranes, or broad low-affinity non-covalent interactions and not from a specific technology interference reaction. […]

The test system of assay [3] is HepG2 and HEK-293. Nature of the assay: Autofluorescence assays, green channel, the four conditions taken together. The settings on record: for autofluorescence activity: example structures of SOM clusters 209, 173, 117. The procedure:
(§6) Three assay platforms were applied to analyze luciferase and fluorescence interference patterns using the Tox21 chemical screening library.
as §3
(§7) HepG2 and HEK-293 cells were dispensed at 2,000/well in 5 µL of the culture medium into 1,536-well black/clear plates using a Multidrop™ Combi Reagent dispenser (ThermoFisher Scientific). In parallel, 5 µL/well of culture medium only were dispensed into 1,536-well black/clear plates. […] After respective incubation times, 23 nL of the compounds dissolved in DMSO, positive controls (fluorescein-green, triamterene-blue, and rose bengal-red) were transferred to the assay plates using Pintool station (Wako, San Diego, CA). […] Data were expressed as relative fluorescence units.
as §5
Finally, for autofluorescence assays, to avoid indications of generalized cell stress without specific biomolecular interactions, only AC50 below the burst cutoff defined in[23] were considered. […]

The test system of assay [4] is HepG2 and HEK-293. Nature of the assay: Autofluorescence assays, red channel, the four conditions taken together. The procedure: as §1, §3, §4
as §5, with “Concentration response curves were designated as class 1–4 based on the quality of the fit, the number of points above background, and the response efficacy, as previously described (summarized in Supporting Information Table S1)[18],[20].” left out

In assay [5] the test system is HepG2 and HEK-293. Nature of the assay: Autofluorescence assays, blue channel, the four conditions taken together (HepG2/HEK-293, cell-based/cell-free). The settings on record: for autofluorescence activity specific to culture condition: Fig. 8A. How it is done: as §6, §3, §7, §5
as §2, with “stress.” for “stress. The distribution of the curve classes for active chemicals is presented in Supporting Information Fig. S1.”

The subject of assay [6] is HEK-293 cells. The assay is described as follows: Autofluorescence qHTS, HEK-293 cell based, green channel. As to conditions: Homo sapiens; Hek293 cell based, green spectrum; unit inferred. How it is done: as §1
(§8) HepG2 and HEK-293 cells were purchased from American Type Culture Collection (ATCC, Manassas, VA). […]
(§9) HepG2 and HEK-293 cells were dispensed at 2,000/well in 5 µL of the culture medium into 1,536-well black/clear plates using a Multidrop™ Combi Reagent dispenser (ThermoFisher Scientific). […] The fluorescence intensity was measured using an Envision plate reader (Perkin Elmer, Waltham, MA) by using excitation/emission filters at 485/535 nm, 405/460 nm, and 540/590 nm for green, blue and red channels respectively. Data were expressed as relative fluorescence units. Each test compound was measured at 5 concentrations ranging from to 29 nM to 92 µM.
(§10) Analysis of compound concentration-response data was performed as previously described. Briefly, raw plate reads for each titration point were first normalized and then corrected by applying a pattern correction algorithm using compound-free control plates (DMSO plates)[22]. […]

Assay [7] concerns HepG2 cells. The assay is described as follows: Autofluorescence qHTS, HepG2 cell based, green channel. As to conditions: Homo sapiens, green spectrum, unit inferred. The procedure:
as §1, §8, §9, §10

The mark [8] stands for this setting: all four assay conditions, read-out: AC50s.

Like-named read-outs stand apart in the source and are kept apart here. A value given as a limit tells only on which side of the number the result lay.

T1 sequence (P08659 whole entry): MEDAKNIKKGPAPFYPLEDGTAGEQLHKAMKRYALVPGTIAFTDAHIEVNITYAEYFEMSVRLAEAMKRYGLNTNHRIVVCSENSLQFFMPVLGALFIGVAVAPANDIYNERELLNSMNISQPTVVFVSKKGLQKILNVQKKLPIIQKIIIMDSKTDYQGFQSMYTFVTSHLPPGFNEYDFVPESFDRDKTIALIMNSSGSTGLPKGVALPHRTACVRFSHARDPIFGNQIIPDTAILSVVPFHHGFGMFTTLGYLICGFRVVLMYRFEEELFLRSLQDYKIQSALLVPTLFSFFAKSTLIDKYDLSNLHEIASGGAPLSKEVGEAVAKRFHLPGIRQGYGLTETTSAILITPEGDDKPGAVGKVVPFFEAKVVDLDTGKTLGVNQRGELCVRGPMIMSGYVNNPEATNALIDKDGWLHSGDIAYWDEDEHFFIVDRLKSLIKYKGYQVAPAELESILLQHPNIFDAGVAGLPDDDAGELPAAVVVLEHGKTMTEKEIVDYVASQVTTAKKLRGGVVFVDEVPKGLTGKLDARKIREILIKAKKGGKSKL

With `[O-][n+]1ccccc1S` [13463-41-7], the IC50 in assay [1] (after filtering, no unit printed in the sheet, read-out: Luc_IC50) stood at 481 nM.
On to `O=C1CCCO1` [Chemical 32], for which the autofluorescence activity result was “autofluorescent in both the green and red channel” in assay [2] (green and red channel, SOM cluster 209); “Active” in assay [3].
On to `CC(CO)NC(=O)C1C=C2c3cccc4[nH]cc(c34)CC2N(C)C1` (centres unmarked) [Chemical 36], for which the autofluorescence activity result in assay [3] was “actives”.
Regarding `O=C(O)CCCc1ccc(N(CCCl)CCCl)cc1` [Chemical 44], the autofluorescence activity entry in assay [4] (example structures of SOM clusters 194 (219 in Fig. 6) and 143) is “actives”.
`CCCNC(=O)NS(=O)(=O)c1ccc(Cl)cc1` [Chemical 49]: in assay [2], the “autofluorescence activity specific to one cell culture” value was “active only on HEK-293”.
On to `OC[C@H]1O[C@@H]2O[C@H]3[C@H](O)[C@@H](O)[C@@H](O[C@H]4[C@H](O)[C@@H](O)[C@@H](O[C@H]5[C@H](O)[C@@H](O)[C@@H](O[C@H]6[C@H](O)[C@@H](O)[C@@H](O[C@H]7[C@H](O)[C@@H](O)[C@@H](O[C@H]8[C@H](O)[C@@H](O)[C@@H](O[C@H]1[C@H](O)[C@H]2O)O[C@@H]8CO)O[C@@H]7CO)O[C@@H]6CO)O[C@@H]5CO)O[C@@H]4CO)O[C@@H]3CO` [Chemical 58], for which the “autofluorescence activity specific to culture condition” value in assay [5] was “active only in the HEK-293 cell-free condition”.
Turning to `O=C1CCCCC1` [Chemical 59], in assay [5], the “autofluorescence activity specific to culture condition” value is “active only in the HEK-293 cell-free condition”.
On to `CN(C)N=Nc1nc[nH]c1C(N)=O` [Chemical 63], for which, in assay [2], the “autofluorescence activity specific to one cell culture” value is “active specifically on the HepG2 culture”.
`Nc1ccc(N)cc1` [Chemical 77]: the “autofluorescence activity specific to one cell culture” value in assay [2] is “active only on HEK-293”.
The same measure, in the same setting: next, `Nc1ccc(N)c2ccccc12` [Chemical 79]: “active specifically on the HepG2 culture”.
For `O=C(O)c1cccc(-c2noc(-c3ccccc3F)n2)c1` [PTC-124, Ataluren], the response curve class in assay [1] was −1.1. Also, in assay [1] (estimated, based on triplicate measurements, read-out: IC50), the IC50 was < 20 nM. Further, the AC50 (usually the midpoint of the concentration-response curve, whichever way the signal moves) in assay [1] (set1) turned out to be 0.00871 µM; in assay [1] (set2), 0.0195 µM; in assay [1] (set3) it was 0.0195 µM.
Consider `O=C1OC2(c3ccc(O)cc3Oc3cc(O)ccc32)c2ccccc21` [fluorescein], for which the curve class in assay [3] (all four assay conditions) is 1.1. Further, the EC50 in assay [3] (setting [8]) is < 4000 nM. In addition, the AC50 turned out to be 2820 nM in assay [6] and 3160 nM in assay [7].
As for rose bengal, in assay [4] (all four assay conditions), the response curve class was 2.1. For the same molecule, the EC50 in assay [4] (setting [8]) was < 12000 nM. In assay [4] (incomplete response), the efficacy is recorded as > 80%.
As for triamterene [Tiramterene], the response curve class in assay [5] (all four assay conditions) amounted to 2.1. The EC50 in assay [5] (setting [8]) was < 40000 nM. Also, the efficacy in assay [5] (incomplete response) is on record as > 80%.

(Values after PMC7055224, “High-Throughput Screening to Predict Chemical-Assay Interference” (Scientific Reports, 2020).)
